This is an account of results in ChEMBL document CHEMBL3860065, “Synthesis and biological evaluation of azole-diphenylpyrimidine derivatives (AzDPPYs) as potent T790M mutant form of epidermal growth factor receptor inhibitors” (Bioorg Med Chem, 2016).

Data set [1] concerns the target Epidermal growth factor receptor (Homo sapiens, UniProt P00533). It counts as ADME, cell-based, Sf9.
Description: Inhibition of human recombinant N-terminal GST-tagged wild type EGFR cytoplasmic domain (695 end residues) autophosphorylation expressed in baculovirus infected Sf9 insect cells by ADP-Glo luminescence assay
For data set [2], the target named is Epidermal growth factor receptor (Homo sapiens, UniProt P00533, L858R/T790M). Briefly: biochemical. It counts as cell-based, Sf9.
The next data set in a line: cells. It counts as functional, cell-based. Conditions: Homo sapiens, NCI-H1975, 48 h.
A short description of data set [3]: Antiproliferative activity against wild type human A431 cells after 48 hrs by MTT assay. Conditions: A-431, 48 h. It counts as functional, cell-based.
The nature of data set [4]: Antiproliferative activity against human A549 cells harboring K-ras mutation after 48 hrs by MTT assay. It counts as functional, cell-based. Conditions: A549, 48 h.
The nature of data set [5]: Antiproliferative activity against NHBE cells after 48 hrs by MTT assay. It counts as ADME, cell-based. Conditions: Homo sapiens.
The conditions of data set [6]: human.
The subject of data set [7] is Epidermal growth factor receptor (Homo sapiens), P00533 [L858R,T790M]. The data set is described as follows: Potency index, ratio of rociletinib IC50 to compound IC50 for human recombinant N-terminal GST-tagged EGFR T790M/L858R double mutant cytoplasmic domain (695 end residues) autophosphorylation expressed in baculovirus infected Sf9 insect cells.
The subject of data set [8] is NCI-H1975. Briefly: Potency index, ratio of gefitinib IC50 to compound IC50 against human NCI-H1975 cells harboring L858R/T790M double mutant. In kind it is functional.
The test system of data set [9] is NCI-H1975. Briefly: Induction of apoptosis in human NCI-H1975 cells harboring L858R/T790M double mutant assessed as viable cells at 50 nM after 48 hrs by annexin V-FITC/PI staining based flow cytometric analysis (reference value: 94.2%). In kind it is functional. Particulars: NCI-H1975, 48 h, read-out: Activity.
Data set [10] concerns NCI-H1975. Briefly: Induction of apoptosis in human NCI-H1975 cells harboring L858R/T790M double mutant assessed as early apoptotic cells at 50 nM after 48 hrs by annexin V-FITC/PI staining based flow cytometric analysis (reference value: 2%). In kind it is functional.
Data set [11] has as its system NCI-H1975. The data set is described as follows: Induction of apoptosis in human NCI-H1975 cells harboring L858R/T790M double mutant assessed as late apoptotic cells at 50 nM after 48 hrs by annexin V-FITC/PI staining based flow cytometric analysis (reference value: 3.4%). It counts as functional.
The subject of data set [12] is NCI-H1975. The data set is described as follows: Induction of apoptosis in human NCI-H1975 cells harboring L858R/T790M double mutant assessed as necrotic cells at 50 nM after 48 hrs by annexin V-FITC/PI staining based flow cytometric analysis (reference value: 0.4%). It counts as functional.
Data set [13] deals with NCI-H1975. The data set is described as follows: Induction of apoptosis in human NCI-H1975 cells harboring L858R/T790M double mutant assessed as viable cells at 200 nM after 48 hrs by annexin V-FITC/PI staining based flow cytometric analysis (reference value: 94.2%). It counts as functional. Particulars: NCI-H1975, 48 h, read-out: Activity.
The test system of data set [14] is NCI-H1975. The data set is described as follows: Induction of apoptosis in human NCI-H1975 cells harboring L858R/T790M double mutant assessed as early apoptotic cells at 200 nM after 48 hrs by annexin V-FITC/PI staining based flow cytometric analysis (reference value: 2%). In kind it is functional.
For data set [15], the system named is NCI-H1975. Briefly: Induction of apoptosis in human NCI-H1975 cells harboring L858R/T790M double mutant assessed as late apoptotic cells at 200 nM after 48 hrs by annexin V-FITC/PI staining based flow cytometric analysis (reference value: 3.4%). In kind it is functional.
For data set [16], the system named is NCI-H1975. The data set is described as follows: Induction of apoptosis in human NCI-H1975 cells harboring L858R/T790M double mutant assessed as necrotic cells at 200 nM after 48 hrs by annexin V-FITC/PI staining based flow cytometric analysis (reference value: 0.4%). It counts as functional.
The test system of data set [17] is NCI-H1975. Briefly: Induction of apoptosis in human NCI-H1975 cells harboring L858R/T790M double mutant assessed as viable cells at 500 nM after 48 hrs by annexin V-FITC/PI staining based flow cytometric analysis (reference value: 94.2%). Conditions: NCI-H1975, 48 h, read-out: Activity. In kind it is functional.
Data set [18] has as its system NCI-H1975. The data set is described as follows: Induction of apoptosis in human NCI-H1975 cells harboring L858R/T790M double mutant assessed as early apoptotic cells at 500 nM after 48 hrs by annexin V-FITC/PI staining based flow cytometric analysis (reference value: 2%). It counts as functional.
Data set [19] has as its system NCI-H1975. Briefly: Induction of apoptosis in human NCI-H1975 cells harboring L858R/T790M double mutant assessed as late apoptotic cells at 500 nM after 48 hrs by annexin V-FITC/PI staining based flow cytometric analysis (reference value: 3.4%). In kind it is functional.
Data set [20] relates to NCI-H1975. Briefly: Induction of apoptosis in human NCI-H1975 cells harboring L858R/T790M double mutant assessed as necrotic cells at 500 nM after 48 hrs by annexin V-FITC/PI staining based flow cytometric analysis (reference value: 0.4%). In kind it is functional.
The test system of data set [21] is NCI-H1975. Briefly: Induction of apoptosis in human NCI-H1975 cells harboring L858R/T790M double mutant after 48 hrs by annexin V-FITC/PI staining based flow cytometric analysis. In kind it is functional, cell-based.

As to `C=CC(=O)Nc1cccc(Nc2nc(Nc3ccc(Cn4ccnc4)cc3)ncc2F)c1`, the IC50 in data set [1] was 987 nM; in data set [2], 9 nM; in the data set “cells”, 1720 nM; in [3], 152 nM; in [4], 3560 nM; in [5], greater than 40000 nM. Half-maximal inhibition in data set [6] (IC50) required 110 nM.
Regarding `C=CC(=O)Nc1cccc(Nc2nc(Nc3ccc(OCCCn4ccnc4)cc3)ncc2[N+](=O)[O-])c1`, the half-inhibitory concentration (IC50) is 8320 nM in “cells”; 6460 nM in data set [3]; 27400 nM in data set [4]; 39200 nM in data set [5]; greater than 24.6 nM in [6].
Turning to `C=CC(=O)Nc1cccc(Nc2nc(Nc3ccc(Cn4ccnc4)cc3)ncc2Cl)c1`, the IC50 was 1000 nM in data set [1]; 3.3 nM in data set [2]; 118 nM in “cells”; 733 nM in data set [3]; 2730 nM in data set [4]; greater than 40000 nM in [5]. The IC50 in data set [6] worked out at 299 nM. In addition, the values for the Ratio IC50 (in [7]; in the data set on NCI-H1975 [8]) were 8 and 10, respectively. Moreover, the viability at 0.05 µM with NCI-H1975 [9] came to 81%. Besides, the Activity in the data set on NCI-H1975 [10] amounted to 16.3%; in the data set with NCI-H1975 [11], 2.6%; in the data set on NCI-H1975 [12], 0.1%; with NCI-H1975 [14], 24.3%; with NCI-H1975 [15], 4.2%; in the data set on NCI-H1975 [16], 0.1%. The Activity with NCI-H1975 [18] was 56.7%; with NCI-H1975 [19], 3.7%; in the data set on NCI-H1975 [20], 0.1%; in the data set with NCI-H1975 [21] it was “Dose-dependent effect”. Also, the viability at 0.2 µM with NCI-H1975 [13] came out at 71.3%. Further, the viability at 0.5 µM in the data set on NCI-H1975 [17] was 39.6%.
With `C=CC(=O)Nc1cccc(Nc2nc(Nc3ccc(NC(=O)Cn4ccnc4)cc3)ncc2[N+](=O)[O-])c1`, the IC50 in the data set “cells” is 11500 nM; in data set [3] it was 16200 nM; in data set [4] it was greater than 40000 nM; in data set [5], greater than 40000 nM; in [6] it was greater than 8.43 nM.
`C=CC(=O)Nc1cccc(Nc2nc(Nc3ccc(OCCn4ccnc4)cc3)ncc2F)c1`: the IC50 in data set [1] was greater than 1000 nM; in data set [2] it was 9.1 nM; in the data set “cells” it was 1810 nM; in [3], 2480 nM; in data set [4], 8370 nM; in data set [5], 40000 nM. The molecule also displayed an IC50 in data set [6] greater than 110 nM.
On to `C=CC(=O)Nc1cccc(Nc2nc(Nc3ccc(OCCn4cncn4)cc3)ncc2Cl)c1`, for which the IC50 in [1] was greater than 1000 nM; in [2] it was 103 nM; in the data set “cells”, 2370 nM; in data set [3] it was 5950 nM; in data set [4], 10900 nM; in data set [5], greater than 40000 nM. In [6], the IC50 is greater than 9.67 nM.
Turning to `C=CC(=O)Nc1cccc(Nc2nc(Nc3ccc(-n4ccnc4)cc3)ncc2[N+](=O)[O-])c1`, the IC50 was greater than 1000 nM in data set [1]; 98.2 nM in data set [2]; 12600 nM in the data set “cells”; 12400 nM in data set [3]; greater than 40000 nM in data set [4]; greater than 40000 nM in data set [5]. This molecule also had an IC50 in data set [6] greater than 10.2 nM.
`C=CC(=O)Nc1cccc(Nc2nc(Nc3ccc(Cn4ccnc4)cc3OC)ncc2Cl)c1`: the 50% inhibitory concentration (IC50) in data set [1] was 506 nM; in data set [2], 109 nM; in “cells”, 932 nM; in data set [3], 6780 nM; in data set [4] it was 14300 nM; in data set [5] it was greater than 40000 nM. In data set [6], this molecule came in with an IC50 of 4.64 nM.
Turning to `C=CC(=O)Nc1cccc(Nc2nc(Nc3ccc(N4CCN(C(C)=O)CC4)cc3OC)ncc2C(F)(F)F)c1` [ROCILETINIB], the IC50 in “cells” is 137 nM; in data set [3], 1290 nM; in data set [4] it was 6500 nM; in data set [5], greater than 40000 nM; in data set [6], 21.4 nM.
Turning to `C=CC(=O)Nc1cccc(Nc2nc(Nc3ccc(OCCn4ccnc4)cc3)ncc2Cl)c1`, the concentration for half-maximal inhibition (IC50) in [1] is greater than 1000 nM; in data set [2], 106 nM; in the data set “cells” it was 391 nM; in [3], 1340 nM; in data set [4], 8440 nM; in data set [5] it was 39200 nM. Also, in data set [6], the IC50 was greater than 9.43 nM.
